Reference: ChEMBL document CHEMBL1134982, “Natural PTP1B inhibitors from Broussonetia papyrifera” (Bioorg Med Chem Lett, 2002)

Each compound was assayed against T1, Tyrosine-protein phosphatase non-receptor type 1 (Homo sapiens, UniProt P18031) (assay: The inhibitory activity tested against human Protein-tyrosine phosphatase 1B enzyme).
T1 sequence (P18031 whole entry): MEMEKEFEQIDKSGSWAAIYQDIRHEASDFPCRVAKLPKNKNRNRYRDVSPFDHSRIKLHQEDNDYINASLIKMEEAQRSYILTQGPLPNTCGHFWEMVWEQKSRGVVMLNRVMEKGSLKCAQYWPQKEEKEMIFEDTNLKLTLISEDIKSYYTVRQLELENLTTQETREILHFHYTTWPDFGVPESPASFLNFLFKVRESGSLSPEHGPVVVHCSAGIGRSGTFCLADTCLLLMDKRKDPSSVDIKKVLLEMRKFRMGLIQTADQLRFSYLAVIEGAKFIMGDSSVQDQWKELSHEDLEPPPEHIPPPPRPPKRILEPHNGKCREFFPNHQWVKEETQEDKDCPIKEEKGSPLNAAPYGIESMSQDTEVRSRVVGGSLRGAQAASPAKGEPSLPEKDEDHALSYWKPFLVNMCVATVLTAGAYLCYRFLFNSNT
An IC50 of 41.5 µM was found for CC(C)=CCc1cc(C2CCc3ccc(O)cc3O2)cc(O)c1O (centres undefined) in this work. An IC50 of 21.5 µM was found for CC(C)=CCc1cc(-c2oc3cc(O)cc(O)c3c(=O)c2O)cc(O)c1O in this work. An IC50 of 4.3 µM was found for C=CC(C)(C)c1c(O)cc(O)c2c(=O)c(O)c(-c3cc(O)c(O)c(CC=C(C)C)c3)oc12 in this work. An IC50 of 36.8 µM was found for CC(C)=CCc1cc(C(=O)/C=C/c2ccc(O)c(O)c2)c(O)cc1O [BROUSSOCHALCONE A] in this work.
